Experimental data as given in ChEMBL document CHEMBL4387753 (Bioorg Med Chem, 2019).
In brackets after ≈: the same amount, converted by molar mass. Activity calls are given as the source filed them. No cut-off for these calls is given here.

How the values were obtained:
[1] = Half life in mouse liver microsomes in presence of NADPH by RP-HPLC analysis; format: ADME, Microsome
Staphylococcus aureus [2] = test: Antibacterial activity against penicillin-resistant Staphylococcus aureus clinical isolate incubated for 24 hrs by CLSI protocol based broth microdilution method; format: functional
[3] = target: T1, Cell division protein FtsZ (Bacillus subtilis (strain 168)) (UniProt P17865); test: Induction of Bacillus subtilis FtsZ polymerization in presence of GTP at 5 ug/ml measured over 30 mins by microtiter plate-based light-scattering assay
T1 sequence (whole entry): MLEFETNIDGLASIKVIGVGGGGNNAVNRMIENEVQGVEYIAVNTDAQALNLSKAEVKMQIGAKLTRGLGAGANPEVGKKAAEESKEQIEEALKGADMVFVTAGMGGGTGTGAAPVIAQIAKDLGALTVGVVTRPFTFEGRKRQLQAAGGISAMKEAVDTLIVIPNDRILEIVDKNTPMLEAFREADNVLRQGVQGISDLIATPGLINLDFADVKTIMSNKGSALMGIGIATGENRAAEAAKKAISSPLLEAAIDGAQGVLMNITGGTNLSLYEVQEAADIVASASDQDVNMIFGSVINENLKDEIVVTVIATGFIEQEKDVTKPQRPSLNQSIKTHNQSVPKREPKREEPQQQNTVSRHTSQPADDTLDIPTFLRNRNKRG

Pseudomonas aeruginosa = test: Antibacterial activity against Pseudomonas aeruginosa ATCC 27853 incubated for 24 hrs by CLSI protocol based broth microdilution method; format: functional; conditions: ATCC 27853, 24 h
Staphylococcus aureus [4] = test: Antibacterial activity against Staphylococcus aureus ATCC 25923 incubated for 24 hrs by CLSI protocol based broth microdilution method; format: functional; conditions: ATCC 25923, 24 h
Escherichia coli = test: Antibacterial activity against Escherichia coli ATCC 25922 incubated for 24 hrs by CLSI protocol based broth microdilution method; format: functional; conditions: ATCC 25922, 24 h
Bacillus pumilus [5] = test: Antibacterial activity against Bacillus pumilus CMCC63202 incubated for 24 hrs by CLSI protocol based broth microdilution method; format: functional; conditions: CMCC63202, 24 h
[6] = Clearance in mouse liver microsomes incubated for 20 mins in presence of NADPH by RP-HPLC analysis; format: ADME, Microsome
Bacillus subtilis = test: Antibacterial activity against Bacillus subtilis ATCC 9372 incubated for 24 hrs by CLSI protocol based broth microdilution method; format: functional; conditions: ATCC 9372, 24 h
[7] = Stability in mouse plasma assessed as degradation of compound at 25 ug/ml incubated for 24 hrs by RP-HPLC analysis; format: ADME, cell-free
Staphylococcus aureus [8] = test: Antibacterial activity against methicillin-resistant Staphylococcus aureus ATCC 43300 incubated for 24 hrs by CLSI protocol based broth microdilution method; format: functional; conditions: ATCC 43300, 24 h
Staphylococcus aureus [9] = test: Antibacterial activity against Staphylococcus aureus clinical isolate incubated for 24 hrs by CLSI protocol based broth microdilution method; format: functional
Staphylococcus aureus [10] = test: Bactericidal activity against penicillin-resistant Staphylococcus aureus clinical isolate assessed as 3 log reduction in number of colony forming units incubated for 24 hrs followed by aliquots transfer to tryptic soy agar and grown for 24 hrs; format: functional
Staphylococcus aureus [11] = test: Bactericidal activity against methicillin-resistant Staphylococcus aureus ATCC 43300 assessed as log reduction in viable bacterial count at 2 ug/ml incubated for 24 hrs by time-kill curve assay; format: functional
Staphylococcus aureus [12] = test: Bactericidal activity against Staphylococcus aureus ATCC 43300 assessed as 3 log reduction in number of colony forming units incubated for 24 hrs followed by aliquots transfer to tryptic soy agar and grown for 24 hrs; format: functional; conditions: ATCC 43300, 24 h
Staphylococcus aureus [13] = test: Ratio of MBC for Staphylococcus aureus ATCC 25923 to MIC for Staphylococcus aureus ATCC 25923; format: functional
Staphylococcus aureus [14] = test: Bactericidal activity against Staphylococcus aureus ATCC 25923 assessed as 3 log reduction in number of colony forming units incubated for 24 hrs followed by aliquots transfer to tryptic soy agar and grown for 24 hrs; format: functional; conditions: ATCC 25923, 24 h
Staphylococcus aureus [15] = test: Bactericidal activity against methicillin-resistant Staphylococcus aureus ATCC 43300 assessed as log reduction in viable bacterial count at 4 ug/ml incubated for 24 hrs by time-kill curve assay; format: functional
[16] = target: T1, Cell division protein FtsZ (Bacillus subtilis (strain 168)); test: Induction of Bacillus subtilis FtsZ polymerization in presence of GTP measured over 30 mins by microtiter plate-based light-scattering assay
[17] = Half life in mouse plasma at 25 ug/ml incubated for 24 hrs by RP-HPLC analysis; format: ADME, cell-free
Bacillus pumilus [18] = test: Effect on bacterial cell morphology in Bacillus pumilus CMCC63202 assessed as increase in bacterial cell length at 0.5 times MIC incubated for 18 hrs by phase-contrast optical microscopic analysis; format: functional, organism-based
HeLa = test: Growth inhibition of human HeLa cells incubated for 48 hrs by MTT assay; format: cell-based
Staphylococcus aureus [19] = test: Bactericidal activity against methicillin-resistant Staphylococcus aureus ATCC 43300 assessed as log reduction in viable bacterial count at 1 to 8 times MIC incubated for 24 hrs by time-kill curve assay; format: functional

NC(=O)c1c(F)ccc(OCc2nn(-c3ccc(Br)cc3)c(=O)[nH]2)c1F
half-life [1]: > 1.5 h
MIC (Staphylococcus aureus [2]): > 64 µg/mL
Activity [3]: inactive
MIC (Pseudomonas aeruginosa): > 64 µg/mL
MIC (Staphylococcus aureus [4]): > 64 µg/mL
MIC (Escherichia coli): > 64 µg/mL
MIC (Bacillus pumilus [5]): > 64 µg/mL
CLH [6]: 24.3%
MIC (Bacillus subtilis): > 64 µg/mL
Stability [7]: Stable
MIC (Staphylococcus aureus [8]): > 64 µg/mL

NC(=O)c1c(F)ccc(OCn2nc(-c3ccc(Cl)cc3)oc2=O)c1F
MIC (Staphylococcus aureus [2]): > 64 µg/mL
Activity [3]: inactive
MIC (Pseudomonas aeruginosa): > 64 µg/mL
MIC (Staphylococcus aureus [9]): > 64 µg/mL
MIC (Staphylococcus aureus [4]): > 64 µg/mL
MIC (Escherichia coli): > 64 µg/mL
MIC (Bacillus pumilus [5]): > 64 µg/mL
MIC (Bacillus subtilis): > 64 µg/mL
MIC (Staphylococcus aureus [8]): > 64 µg/mL

NC(=O)c1c(F)ccc(OCC2=NN(c3ccc(Br)cc3)C(=O)C2)c1F
MIC (Staphylococcus aureus [2]): > 64 µg/mL
Activity [3]: inactive
MIC (Pseudomonas aeruginosa): > 64 µg/mL
MIC (Staphylococcus aureus [4]): > 64 µg/mL
MIC (Escherichia coli): > 64 µg/mL
MIC (Bacillus pumilus [5]): > 64 µg/mL
MIC (Bacillus subtilis): > 64 µg/mL
MIC (Staphylococcus aureus [8]): > 64 µg/mL

NC(=O)c1c(F)ccc(OCc2nc3cc(Cl)cnc3s2)c1F
MIC (Staphylococcus aureus [2]): 1 µg/mL (≈ 2.81 µM)
MBC (Staphylococcus aureus [10]): 1 µg/mL (≈ 2.81 µM)
MIC (Pseudomonas aeruginosa): > 64 µg/mL
Activity (Staphylococcus aureus [11]): 4 log10CFU/ml
MIC (Staphylococcus aureus [9]): 0.5 µg/mL (≈ 1.41 µM)
MIC (Staphylococcus aureus [4]): 1 µg/mL (≈ 2.81 µM)
MBC (Staphylococcus aureus [12]): 1 µg/mL (≈ 2.81 µM)
Ratio (Staphylococcus aureus [13]): 1
MIC (Escherichia coli): > 64 µg/mL
MBC (Staphylococcus aureus [14]): 1 µg/mL (≈ 2.81 µM)
MIC (Bacillus pumilus [5]): 0.5 µg/mL (≈ 1.41 µM)
MIC (Bacillus subtilis): 0.5 µg/mL (≈ 1.41 µM)
MIC (Staphylococcus aureus [8]): 1 µg/mL (≈ 2.81 µM)

CC(=O)NC[C@H]1CN(c2ccc(N3CCOCC3)c(F)c2)C(=O)O1 [LINEZOLID]
MBC (Staphylococcus aureus [10]): > 64 µg/mL
Activity [3]: inactive
MIC (Pseudomonas aeruginosa): > 64 µg/mL
MIC (Staphylococcus aureus [9]): 1 µg/mL (≈ 2.96 µM)
MBC (Staphylococcus aureus [12]): > 64 µg/mL
MIC (Escherichia coli): > 64 µg/mL
MBC (Staphylococcus aureus [14]): > 64 µg/mL
Activity (Staphylococcus aureus [15]): 1 log10CFU/ml
MIC (Bacillus pumilus [5]): 2 µg/mL (≈ 5.93 µM)
MIC (Bacillus subtilis): 0.5 µg/mL (≈ 1.48 µM)

NC(=O)c1c(F)ccc(OCc2nn(-c3ccc(Br)cc3)c(=O)o2)c1F
half-life [1]: > 1.5 h
MIC (Staphylococcus aureus [2]): 1 µg/mL (≈ 2.35 µM)
Activity [16]: Dose-dependent effect
MBC (Staphylococcus aureus [10]): 1 µg/mL (≈ 2.35 µM)
MIC (Pseudomonas aeruginosa): > 64 µg/mL
half-life at 25 ug/ml [17]: 2.5 h
MIC (Staphylococcus aureus [9]): 0.5 µg/mL (≈ 1.17 µM)
Activity (Bacillus pumilus [18]): Active
MIC (Staphylococcus aureus [4]): 1 µg/mL (≈ 2.35 µM)
MBC (Staphylococcus aureus [12]): 1 µg/mL (≈ 2.35 µM)
Ratio (Staphylococcus aureus [13]): 1
IC50 (HeLa): > 64 µg/mL
MIC (Escherichia coli): > 64 µg/mL
Activity (Staphylococcus aureus [19]): 4 log10CFU/ml
MBC (Staphylococcus aureus [14]): 1 µg/mL (≈ 2.35 µM)
MIC (Bacillus pumilus [5]): 1 µg/mL (≈ 2.35 µM)
CLH [6]: 24.3%
MIC (Bacillus subtilis): 0.125 µg/mL (≈ 0.293 µM)
Stability [7]: Unstable
MIC (Staphylococcus aureus [8]): 1 µg/mL (≈ 2.35 µM)

CCc1ccc(-n2nc(COc3ccc(F)c(C(N)=O)c3F)oc2=O)cc1
MIC (Staphylococcus aureus [2]): 4 µg/mL (≈ 10.7 µM)
MIC (Pseudomonas aeruginosa): > 64 µg/mL
MIC (Staphylococcus aureus [9]): 2 µg/mL (≈ 5.33 µM)
MIC (Staphylococcus aureus [4]): 2 µg/mL (≈ 5.33 µM)
MIC (Escherichia coli): > 64 µg/mL
MIC (Bacillus pumilus [5]): 4 µg/mL (≈ 10.7 µM)
MIC (Bacillus subtilis): 0.5 µg/mL (≈ 1.33 µM)
MIC (Staphylococcus aureus [8]): 2 µg/mL (≈ 5.33 µM)

COc1cccc(-n2nc(COc3ccc(F)c(C(N)=O)c3F)oc2=O)c1
MIC (Staphylococcus aureus [2]): > 64 µg/mL
MIC (Pseudomonas aeruginosa): > 64 µg/mL
MIC (Staphylococcus aureus [9]): 64 µg/mL (≈ 170 µM)
MIC (Staphylococcus aureus [4]): 64 µg/mL (≈ 170 µM)
MIC (Escherichia coli): > 64 µg/mL
MIC (Bacillus pumilus [5]): > 64 µg/mL
MIC (Bacillus subtilis): 16 µg/mL (≈ 42.4 µM)
MIC (Staphylococcus aureus [8]): > 64 µg/mL

N#Cc1ccc(-n2nc(COc3ccc(F)c(C(N)=O)c3F)oc2=O)cc1
MIC (Staphylococcus aureus [2]): 8 µg/mL (≈ 21.5 µM)
MIC (Pseudomonas aeruginosa): > 64 µg/mL
MIC (Staphylococcus aureus [9]): 16 µg/mL (≈ 43 µM)
MIC (Staphylococcus aureus [4]): 4 µg/mL (≈ 10.7 µM)
MIC (Escherichia coli): > 64 µg/mL
MIC (Bacillus pumilus [5]): 4 µg/mL (≈ 10.7 µM)
MIC (Bacillus subtilis): 2 µg/mL (≈ 5.37 µM)
MIC (Staphylococcus aureus [8]): 4 µg/mL (≈ 10.7 µM)

CCn1c(COc2ccc(F)c(C(N)=O)c2F)nn(-c2ccc(Br)cc2)c1=O
MIC (Staphylococcus aureus [2]): > 64 µg/mL
Activity [3]: inactive
MIC (Pseudomonas aeruginosa): > 64 µg/mL
MIC (Staphylococcus aureus [4]): > 64 µg/mL
MIC (Escherichia coli): > 64 µg/mL
MIC (Bacillus pumilus [5]): > 64 µg/mL
MIC (Bacillus subtilis): > 64 µg/mL
MIC (Staphylococcus aureus [8]): > 64 µg/mL

NC(=O)c1c(F)ccc(OCc2nn(Cc3ccc(Cl)cc3)c(=O)o2)c1F
MIC (Staphylococcus aureus [2]): > 64 µg/mL
MIC (Pseudomonas aeruginosa): > 64 µg/mL
MIC (Staphylococcus aureus [9]): > 64 µg/mL
MIC (Staphylococcus aureus [4]): > 64 µg/mL
MIC (Escherichia coli): > 64 µg/mL
MIC (Bacillus pumilus [5]): 32 µg/mL (≈ 80.9 µM)
MIC (Bacillus subtilis): 8 µg/mL (≈ 20.2 µM)
MIC (Staphylococcus aureus [8]): 64 µg/mL (≈ 162 µM)

CN[C@H](CC(C)C)C(=O)N[C@H]1C(=O)N[C@@H](CC(N)=O)C(=O)N[C@H]2C(=O)N[C@H]3C(=O)N[C@H](C(=O)N[C@H](C(=O)O)c4cc(O)cc(O)c4-c4cc3ccc4O)[C@H](O)c3ccc(c(Cl)c3)Oc3cc2cc(c3O[C@@H]2O[C@H](CO)[C@@H](O)[C@H](O)[C@H]2O[C@H]2C[C@](C)(N)[C@H](O)[C@H](C)O2)Oc2ccc(cc2Cl)[C@H]1O [VANCOMYCIN]
MBC (Staphylococcus aureus [10]): 1 µg/mL (≈ 0.69 µM)
Activity (Staphylococcus aureus [11]): 4 log10CFU/ml
MBC (Staphylococcus aureus [12]): 1 µg/mL (≈ 0.69 µM)
MBC (Staphylococcus aureus [14]): 2 µg/mL (≈ 1.38 µM)
